How the values were obtained:
Format in all cases: functional
Mus musculus [1] = assay: (§1) Neuroprotective activity in haloperidol-induced catalepsy Mus musculus Swiss albino (mouse) model assessed as GSH-Px activity per mg protein in brain homogenate at 100 mg/kg, po administered 30 min before haloperidol challenge measured after 4 hr post challenge by spectrophotometry (reference value: 2.129 +/- 0.06 U/mg protein)
Mus musculus [2] = assay: as §1, with “as Cu-Zn-SOD” for “as GSH-Px”, “per gram” for “per mg”, “by NBT reduction assay” for “by spectrophotometry”, “value: 1.794” for “value: 2.129”, “+/- 0.03 U/g” for “+/- 0.06 U/mg”
Mus musculus [3] = assay: as §1, with “GSH level” for “GSH-Px activity”, “gram of” for “mg protein in”, “tissue” for “homogenate”, “23.45” for “2.129”, “0.23 ug/g tissue)” for “0.06 U/mg protein)”
Mus musculus [4] = assay: Neuroprotective activity in Mus musculus Swiss albino (mouse) model assessed as reduction in haloperidol-induced catalepsy at 100 mg/kg, ip administered 30 min before haloperidol challenge measured for 30 to 180 min; parameters: scale not given: the % may be the effect or the level left; details: route intraperitoneal
Mus musculus [5] = assay: Neuroprotective activity in haloperidol-induced catalepsy Mus musculus Swiss albino (mouse) model assessed as mean cumulative descent time at 100 mg/kg, po administered 30 min before haloperidol challenge (reference value: 33 +/- 1.34 min)
Mus musculus [6] = assay: Neuroprotective activity in haloperidol-induced catalepsy Mus musculus Swiss albino (mouse) model assessed as mean descent time at 100 mg/kg, po administered 30 min before haloperidol challenge measured at 30 min post challenge
Mus musculus [7] = assay: Neuroprotective activity in haloperidol-induced catalepsy Mus musculus Swiss albino (mouse) model assessed as mean descent time at 100 mg/kg, po administered 30 min before haloperidol challenge measured at 60 min post challenge
Mus musculus [8] = assay: Neuroprotective activity in haloperidol-induced catalepsy Mus musculus Swiss albino (mouse) model assessed as mean descent time at 100 mg/kg, po administered 30 min before haloperidol challenge measured at 90 min post challenge
Mus musculus [9] = assay: Neuroprotective activity in haloperidol-induced catalepsy Mus musculus Swiss albino (mouse) model assessed as mean descent time at 100 mg/kg, po administered 30 min before haloperidol challenge measured at 120 min post challenge
Mus musculus [10] = assay: Neuroprotective activity in haloperidol-induced catalepsy Mus musculus Swiss albino (mouse) model assessed as mean descent time at 100 mg/kg, po administered 30 min before haloperidol challenge measured at 150 min post challenge
Mus musculus [11] = assay: Neuroprotective activity in haloperidol-induced catalepsy Mus musculus Swiss albino (mouse) model assessed as mean descent time at 100 mg/kg, po administered 30 min before haloperidol challenge measured at 180 min post challenge
Mus musculus [12] = assay: as §1, with “inhibition of MDA equivalent TBARS release” for “GSH-Px activity”, “1.157” for “2.129”, “nmol/mg” for “U/mg”

SMILES: COc1ccccc1NC(=O)Nc1nc2c(ccc3ccccc32)s1
- Activity (Mus musculus [1]): 1.83 U/mg
- Activity (Mus musculus [2]): 1.622 U/g protein
- Activity (Mus musculus [3]): 16.8 µg/g
- Activity (Mus musculus [4]): 76.9%
- Time (Mus musculus [5]): 6.43 min
- Time (Mus musculus [6]): 11 s
- Time (Mus musculus [7]): 28 s
- Time (Mus musculus [8]): 43 s
- Time (Mus musculus [9]): 87 s
- Time (Mus musculus [10]): 109 s
- Time (Mus musculus [11]): 108 s
- Activity (Mus musculus [12]): 2.504 nmol/mg protein
